Test results published in US9113629B2, “4-amino-6-(4-substituted-phenyl)-picolinates and 6-amino-2-(4-substituted-phenyl)-pyrimidine-4-carboxylates and their use as herbicides” (DOW AGROSCIENCES LLC, priority 2013, dated 2015).
Read-outs that look alike come from different tables or passages of the source.

Test system: test plant species in Direct Seeded Rice
Experiment: Postemergence herbicidal activity in direct seeded rice (Table 13)
Format: in vivo
Details: for GR50 BRAPP / GR80 BRAPP / GR50 CYPSS / GR80 CYPSS / GR50 ECHSS / GR80 ECHSS / GR50 LEFSS / GR80 LEFSS / GR20 ORYSS / GR50 SCPJU / GR80 SCPJU / GR50 SEBEX / GR80 SEBEX: probit analysis; for GR20 ORYSS: ORYSS: Oryza sativa (crop); for pest or weed control at 35 g/ha / pest or weed control at 70 g/ha: post-emergence, 504 h
From the text: Seeds or nutlets of the desired test plant species were planted in a soil matrix prepared by mixing a loam soil (43 percent silt, 19 percent clay, and 38 percent sand, with a pH of about 8.1 and an organic matter content of about 1.5 percent) and river sand in an 80 to 20 ratio. The soil matrix was contained in plastic pots with a surface area of 139.7 cm^2. When required to ensure good germination and healthy plants, a fungicide treatment and/or other chemical or physical treatment was applied. The plants were grown for 10-17 d in a greenhouse with an approximate 14-h photoperiod which was maintained at about 29° C. during the day and 26° C. during the night. Nutrients and water were added on a regular basis and supplemental lighting was provided with overhead metal halide 1000-Watt lamps as necessary. The plants were employed for testing when they reached the second or third true leaf stage. A weighed amount, determined by the highest rate to be tested, of each test compound was placed in 25 mL glass vials and dissolved in a volume of 97:3 v/v acetone-DMSO to obtain 12× stock solutions. […] The concentrated stock solutions were added to the spray solutions so that the final acetone and DMSO concentrations were 16.2% and 0.5%, respectively. Spray solutions were diluted to the appropriate final concentrations with the addition of 10 mL of an aqueous mixture of 1.5% (v/v) Agri-dex crop oil concentrate. […] Compound requirements are based upon a 12 mL application volume at a rate of 187 L/ha. Formulated compounds were applied to the plant material with an overhead Mandel track sprayer equipped with […] nozzles calibrated to deliver 187 L/ha over an application area of 0.503 square meters (m^2) at a spray height of 18 inches (43 cm) above average plant canopy height. Control plants were sprayed in the same manner with the solvent blank. The treated plants and control plants were placed in a greenhouse as described above and watered by sub-irrigation to prevent wash-off of the test compounds. After 20-22 days, the condition of the test plants, compared with that of the untreated plants, was determined visually and scored on a scale of 0 to 100 percent where 0 corresponds to no injury and 100 corresponds to complete kill. By applying the well-accepted probit analysis as described by J. Berkson in Journal of the American Statistical Society, 48, 565 (1953) and by D. Finney in “Probit Analysis” Cambridge University Press (1952), the above data can be used to calculate GR20, GR50, GR80 and GR90 values, which are defined as growth reduction factors that correspond to the effective dose of herbicide required to kill or control 20 percent, 50 percent, 80 percent or 90 percent, respectively, of a target plant.

[1] = BRAPP: broadleaf signalgrass, Brachiaria platyphylla
[2] = CYPSS: sedge (Cyperus difformis, esculentus, iria)
[3] = ECHSS: barnyardgrass (Echinochloa crus-galli), junglerice (Echinochloa colonum)
[4] = LEFSS: sprangletop (Leptochloa chinensis, Leptochloa dubia)
[5] = SCPJU: Japanese bulrush, Scirpus juncoides
[6] = SEBEX: hemp sesbania, Sesbania exaltata
[7] = BRAPP: broadleaf signalgrass, Brachiaria platyphylla, 35 g ai/ha, read-out: Visual Growth Reduction (%) 21 Days After Application BRAPP
[8] = BRAPP: broadleaf signalgrass, Brachiaria platyphylla, 70 g ai/ha, read-out: Visual Growth Reduction (%) 21 Days After Application BRAPP
[9] = CYPSS: sedge (Cyperus difformis, esculentus, iria), 35 g ai/ha, read-out: Visual Growth Reduction (%) 21 Days After Application CYPSS
[10] = CYPSS: sedge (Cyperus difformis, esculentus, iria), 70 g ai/ha, read-out: Visual Growth Reduction (%) 21 Days After Application CYPSS
[11] = ECHSS: barnyardgrass (Echinochloa crus-galli), junglerice (Echinochloa colonum), 35 g ai/ha, read-out: Visual Growth Reduction (%) 21 Days After Application ECHSS
[12] = ECHSS: barnyardgrass (Echinochloa crus-galli), junglerice (Echinochloa colonum), 70 g ai/ha, read-out: Visual Growth Reduction (%) 21 Days After Application ECHSS
[13] = LEFSS: sprangletop (Leptochloa chinensis, Leptochloa dubia), 35 g ai/ha, read-out: Visual Growth Reduction (%) 21 Days After Application LEFSS
[14] = LEFSS: sprangletop (Leptochloa chinensis, Leptochloa dubia), 70 g ai/ha, read-out: Visual Growth Reduction (%) 21 Days After Application LEFSS
[15] = ORYSS: Oryza sativa, 35 g ai/ha, read-out: Visual Growth Reduction (%) 21 Days After Application ORYSS
[16] = ORYSS: Oryza sativa, 70 g ai/ha, read-out: Visual Growth Reduction (%) 21 Days After Application ORYSS
[17] = SCPJU: Japanese bulrush, Scirpus juncoides, 35 g ai/ha, read-out: Visual Growth Reduction (%) 21 Days After Application SCPJU
[18] = SCPJU: Japanese bulrush, Scirpus juncoides, 70 g ai/ha, read-out: Visual Growth Reduction (%) 21 Days After Application SCPJU
[19] = SEBEX: hemp sesbania, Sesbania exaltata, 35 g ai/ha, read-out: Visual Growth Reduction (%) 21 Days After Application SEBEX
[20] = SEBEX: hemp sesbania, Sesbania exaltata, 70 g ai/ha, read-out: Visual Growth Reduction (%) 21 Days After Application SEBEX

SMILES | GR50 BRAPP [1] [g ai/ha] | GR80 BRAPP [1] [g ai/ha] | GR50 CYPSS [2] [g ai/ha] | GR80 CYPSS [2] [g ai/ha] | GR50 ECHSS [3] [g ai/ha] | GR80 ECHSS [3] [g ai/ha] | GR50 LEFSS [4] [g ai/ha] | GR80 LEFSS [4] [g ai/ha] | GR20 ORYSS [g ai/ha] | GR50 SCPJU [5] [g ai/ha] | GR80 SCPJU [5] [g ai/ha] | GR50 SEBEX [6] [g ai/ha] | GR80 SEBEX [6] [g ai/ha] | pest or weed control at 35 g/ha [7] [%] | pest or weed control at 70 g/ha [8] [%] | pest or weed control at 35 g/ha [9] [%] | pest or weed control at 70 g/ha [10] [%] | pest or weed control at 35 g/ha [11] [%] | pest or weed control at 70 g/ha [12] [%] | pest or weed control at 35 g/ha [13] [%] | other results
COc1c(N)nc(-c2cc(F)c(Br)cc2F)nc1C(=O)O [Compound 11] | 13 | 44 | 1 | 1 | 11 | 25 | 175 | 463 | 25 | 1 | 1 | 3 | 7 | 60 to 74 | 85 to 94 | 95 to 100 | 95 to 100 | 85 to 94 | 95 to 100 | 0 to 29 | pest or weed control at 70 g/ha [14]: 0 to 29%; pest or weed control at 35 g/ha [15]: 30 to 44%; pest or weed control at 70 g/ha [16]: 45 to 59%; pest or weed control at 35 g/ha [17]: 95 to 100%; pest or weed control at 70 g/ha [18]: 95 to 100%; pest or weed control at 35 g/ha [19]: 95 to 100%; pest or weed control at 70 g/ha [20]: 95 to 100%
COC(=O)c1nc(-c2ccc(Br)cc2)c(Cl)c(N)c1Cl [Compound 47] | >70 | >70 | 1 | 3 | >70 | >70 | >70 | >70 | >70 | 1 | 1 | 1 | 1 | 30 to 44 | 30 to 44 | 95 to 100 | 95 to 100 | 30 to 44 | 0 to 29 | 75 to 84 | pest or weed control at 70 g/ha [14]: 0 to 29%; pest or weed control at 35 g/ha [15]: 0 to 29%; pest or weed control at 70 g/ha [16]: 0 to 29%; pest or weed control at 35 g/ha [17]: 95 to 100%; pest or weed control at 70 g/ha [18]: 95 to 100%; pest or weed control at 35 g/ha [19]: 95 to 100%; pest or weed control at 70 g/ha [20]: 95 to 100%
COC(=O)c1nc(-c2ccc(C(F)(F)F)c(F)c2)c(Cl)c(N)c1Cl [Compound 58] | >70 | >70 | 4 | 8 | >70 | >70 | >70 | >70 | >70 | 5 | 8 | 2 | 4 | – | – | – | – | – | – | – | Visual Growth Reduction (%) 21 Days After Application BRAPP (BRAPP: broadleaf signalgrass, Brachiaria platyphylla, 35 g ai/ha): G (0-29); Visual Growth Reduction (%) 21 Days After Application BRAPP (BRAPP: broadleaf signalgrass, Brachiaria platyphylla, 70 g ai/ha): G (0-29); Visual Growth Reduction (%) 21 Days After Application CYPSS (CYPSS: sedge (Cyperus difformis, esculentus, iria), 35 g ai/ha): A (95-100); Visual Growth Reduction (%) 21 Days After Application CYPSS (CYPSS: sedge (Cyperus difformis, esculentus, iria), 70 g ai/ha): A (95-100); Visual Growth Reduction (%) 21 Days After Application ECHSS (ECHSS: barnyardgrass (Echinochloa crus-galli), junglerice (Echinochloa colonum), 35 g ai/ha): G (0-29); Visual Growth Reduction (%) 21 Days After Application ECHSS (ECHSS: barnyardgrass (Echinochloa crus-galli), junglerice (Echinochloa colonum), 70 g ai/ha): G (0-29); Visual Growth Reduction (%) 21 Days After Application LEFSS (LEFSS: sprangletop (Leptochloa chinensis, Leptochloa dubia), 35 g ai/ha): G (0-29); Visual Growth Reduction (%) 21 Days After Application LEFSS (LEFSS: sprangletop (Leptochloa chinensis, Leptochloa dubia), 70 g ai/ha): E (45-59); Visual Growth Reduction (%) 21 Days After Application ORYSS (ORYSS: Oryza sativa, 35 g ai/ha): G (0-29); Visual Growth Reduction (%) 21 Days After Application ORYSS (ORYSS: Oryza sativa, 70 g ai/ha): G (0-29); Visual Growth Reduction (%) 21 Days After Application SCPJU (SCPJU: Japanese bulrush, Scirpus juncoides, 35 g ai/ha): A (95-100); Visual Growth Reduction (%) 21 Days After Application SCPJU (SCPJU: Japanese bulrush, Scirpus juncoides, 70 g ai/ha): A (95-100); Visual Growth Reduction (%) 21 Days After Application SEBEX (SEBEX: hemp sesbania, Sesbania exaltata, 35 g ai/ha): A (95-100); Visual Growth Reduction (%) 21 Days After Application SEBEX (SEBEX: hemp sesbania, Sesbania exaltata, 70 g ai/ha): A (95-100)
